Source: the NIST ThermoML archive (doi:10.1016/j.jct.2013.08.016)
Numbers after ± are expanded uncertainties.

Legend:
[1] = mn = molality of the nth substance listed, in mol/kg; conditions: 101.3 kPa, Liquid, m2 = 0; for viscosity: Capillary tube (Ostwald / Ubbelohde) method; for mass density: Pycnometric method; for speed of sound: Single path-length method
[2] = refractive index (Na D-line) (dimensionless); mn = molality of the nth substance listed, in mol/kg; conditions: 101.3 kPa, Liquid, Standard Abbe refractometry, m2 = 0
[3] = 101.3 kPa, Liquid, Capillary tube (Ostwald / Ubbelohde) method
[4] = refractive index (Na D-line) (dimensionless); conditions: 101.33 kPa, Liquid, Standard Abbe refractometry

Row | SMILES | viscosity ([1]; 278.15 K) [mPa·s] | mass density ([1]; 278.15 K) [kg/m3] | speed of sound ([1]; 278.15 K) [m/s] | viscosity ([1]; 288.15 K) [mPa·s] | viscosity ([1]; 298.15 K) [mPa·s] | refractive index ([2]; 278.15 K) | refractive index ([2]; 288.15 K) | refractive index ([2]; 298.15 K) | viscosity ([3]; 278.15 K) [mPa·s] | viscosity ([3]; 288.15 K) [mPa·s] | viscosity ([3]; 298.15 K) [mPa·s] | refractive index ([4]; 278.15 K) | refractive index ([4]; 288.15 K) | refractive index ([4]; 298.15 K)
1 | O [water] + O=C1O[C@H]([C@@H](O)CO)C([O-])=C1O.[Na+] | 1.519 ± 0.032 | 999.96 ± 0.38 | 1426.2 ± 2.2 | 1.138 ± 0.025 | 0.8903 ± 0.019 | 1.3339 ± 0.0005 | 1.3334 ± 0.0005 | 1.3325 ± 0.0005 |  |  |  |  |  | 
2 | O [water] |  |  |  |  |  |  |  |  | 1.519 ± 0.032 | 1.138 ± 0.025 | 0.8903 ± 0.019 | 1.3339 ± 0.0005 | 1.3334 ± 0.0005 | 1.3325 ± 0.0005
3 | O [water] + O=C1O[C@H]([C@@H](O)CO)C(O)=C1O | 1.519 ± 0.032 | 999.96 ± 0.37 | 1426.2 ± 2.2 | 1.138 ± 0.025 | 0.8903 ± 0.019 | 1.3339 ± 0.0005 | 1.3334 ± 0.0005 | 1.3325 ± 0.0005 |  |  |  |  |  | 
